Target: T1, VGLUT1 (Rattus norvegicus, UniProt Q62634)
T1 construct: only the hippocampus and the cerebral cortex were selected and isolated; endogenous in cells; host or cells: primary neurons from hippocampus and cerebral cortex of Sprague Dawley rat fetuses
T1 sequence (Q62634 1-560): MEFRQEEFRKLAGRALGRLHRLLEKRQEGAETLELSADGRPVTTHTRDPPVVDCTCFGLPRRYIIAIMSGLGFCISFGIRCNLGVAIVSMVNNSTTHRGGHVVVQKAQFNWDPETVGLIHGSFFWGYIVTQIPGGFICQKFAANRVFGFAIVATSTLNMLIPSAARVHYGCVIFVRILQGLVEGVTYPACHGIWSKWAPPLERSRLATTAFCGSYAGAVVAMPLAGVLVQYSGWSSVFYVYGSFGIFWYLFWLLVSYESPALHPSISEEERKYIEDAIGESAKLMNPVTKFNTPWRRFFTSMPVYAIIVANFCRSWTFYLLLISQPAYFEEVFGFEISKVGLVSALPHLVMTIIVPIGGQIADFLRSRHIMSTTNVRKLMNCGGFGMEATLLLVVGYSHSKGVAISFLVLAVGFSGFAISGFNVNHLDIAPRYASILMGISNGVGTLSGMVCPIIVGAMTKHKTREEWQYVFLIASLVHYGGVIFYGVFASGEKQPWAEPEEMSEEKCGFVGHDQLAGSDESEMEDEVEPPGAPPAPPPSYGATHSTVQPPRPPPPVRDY
Experiment: In vitro binding test via primary culture: MR phantom study
Assay type: cell-based, Sprague Dawley rats
Details: primary rat brain neurons, 0, 50, 100, 200, 400 μM, 24 hours, washed, 3T MRI; FIG. 6A/6B
Description: 2) In Vitro Binding Test Via Primary Culture 2)-(1). Experimental Method {circumflex over (1)} Primary Culture of Rat Brain Neurons
Sprague Dawley rats at […] of pregnancy were purchased from Daehan Biolink. After stabilizing the pregnant […], respiratory anesthesia was performed using isoflurane, and the fetus was separated from the mother. The fetal brain was separated therefrom, the membrane was removed therefrom, and only the hippocampus and the cerebral cortex were selected and isolated, cut into small pieces, put in HBSS buffer and washed 4 times (centrifugation 1000 rpm, 3 minutes). After the last washing, HBSS was removed, and HBSS buffer containing trypsin was added thereto (cell volume: trypsin HBSS=1:1) and reaction occurred in a constant temperature water bath (37° C.) for 5 minutes. HBSS buffer containing 10% FBS was added thereto ((cell volume+trypsin HBSS): 10% FBS HBSS=1:1) to stop the enzyme reaction of trypsin, and the resulting product passed through 4 layers of lens paper and thus was formed into single cells. The cells were washed 4 times via centrifugation with HBSS buffer, and only the cells separated into the single cells were obtained. […]
The obtained cells were suspended in neurobasal media containing 1×N2 supplement, 1×B27, 4 mM L-glutamine, and 1% antibiotics at 7×10^6 cells per E-tube. […] MRI intensity was analyzed using ImageJ program.

O=C([O-])CN1CCN(CC(=O)[O-])CCN([C@H](CO)[C@H](O)CO)CCN(CC(=O)[O-])CC1.[Gd+3] (racemic) [Gadovist]
phantom signal intensity (brightness) based on Gd concentration: little difference in brightness based on the Gd concentration
